In ChEMBL document CHEMBL5385915 (J Med Chem, 2024):
Converted amounts (≈) assume the structure as drawn.

The compounds below were run on Mycobacterium tuberculosis variant bovis (assay: Antimycobacterial activity against Mycobacterium bovis BCG assessed as reduction in microbial growth incubated for 7 days by resazurin dye based assay). Conditions: 168 h, time 7 day.
Format: functional
`CC(C)NC[C@@H]1C[C@H](c2ccc(OC(F)(F)F)cc2)N1Cc1ccccc1OC(F)(F)F` (racemic) was tested, and the MIC99 was 26 µM.
`CC(C)NC[C@@H]1C[C@H](c2ccccc2)N1Cc1ccccc1OC(F)(F)F` (racemic) gave an MIC99 of 45 µM.
Compound `Brc1ccccc1CN1[C@H](CN2CCCC2)C[C@@H]1c1ccccc1` (racemic) has an MIC99 of 65 µM.
`CN(C)C[C@@H]1C[C@H](c2cc(Br)cc(Br)c2)N1Cc1ccccc1Br` (racemic) was tested, and the MIC99 was 48 µM.
Work on `CC(C)NC[C@@H]1C[C@H](c2ccccc2)N1Cc1ccccc1Br` (racemic) yielded an MIC99 of 51 µM.
For `FC(F)(F)c1cc([C@H]2C[C@@H](CN3CCCC3)N2Cc2ccccc2Br)cc(C(F)(F)F)c1` (racemic), the MIC99 was 22 µM.
Work on `FC(F)(F)Oc1ccc(C2CCN(C[C@@H]3C[C@H](c4ccccc4)N3Cc3ccccc3Br)CC2)cc1` (racemic) yielded an MIC99 of 56 µM.
Work on `COc1ccc([C@H]2C[C@@H](CN3CCCC3)N2Cc2ccccc2Br)cc1` (racemic) yielded an MIC99 of 42.6 µM.
`CC(C)NC[C@@H]1C[C@H](c2ccc(OC(F)(F)F)cc2)N1Cc1ccccc1Br` (racemic) was tested, and the MIC99 was 24 µM.
With `COCCNC[C@@H]1C[C@H](c2ccc(OC(F)(F)F)cc2)N1Cc1ccccc1OC(F)(F)F` (racemic) the MIC99 was 30 µM.
Compound `Clc1cc(Cl)cc([C@H]2C[C@@H](CN3CCCC3)N2Cc2ccccc2Br)c1` (racemic) has an MIC99 of 11 µM.
Compound `FC(F)(F)c1ccc(C2CCN(C[C@@H]3C[C@H](c4ccccc4)N3Cc3ccccc3Br)CC2)cc1` (racemic) has an MIC99 of 60 µM.
`C#CCNC[C@@H]1C[C@H](c2cc(Br)cc(Br)c2)N1Cc1ccccc1Br` (racemic) showed an MIC99 of 54 µM.

The compounds below were run on Mycobacterium tuberculosis variant bovis (assay: Bactericidal activity against Mycobacterium bovis BCG assessed as inhibition of bacterial growth incubated for 7 days by resazurin dye based assay). Conditions: 168 h, time 7 day.
Format: functional
For `FC(F)(F)Oc1ccc([C@H]2C[C@@H](CN3CCCC3)N2Cc2ccccc2OC(F)(F)F)cc1` (racemic), the MBC was 12 µM (≈ 5.69 µg/mL).
`FC(F)(F)c1cc([C@H]2C[C@@H](CN3CCCC3)N2Cc2ccccc2Br)cc(C(F)(F)F)c1` (racemic) gave an MBC of 12 µM (≈ 6.26 µg/mL).
